Source: patent US20250275938A1, “COMPOSITIONS AND METHODS FOR TREATMENT OF CANCER” (SCIROSBIO (FZC), priority 2022, published 2025)

Assays:
[1] = tested on: HEK293T (Human Embryonic Kidney) cells; experiment: Trypan blue exclusion cytotoxicity on normal cell line; assay type: cell-based; details: treated at IC50 values determined in U87MG and C6, 24 hours
Experimental: Cytotoxicity on a normal cell line.
Furthermore, to check for the cytotoxicity of the drugs, a trypan blue dye exclusion assay was performed on a normal cell line, HEK293T, using the IC50 values of each drug, individually and in combination, as determined in U87MG and C6 cells and shown in Table 2.

TBARS in U87MG cells = experiment: TBARS (MDA) assay, U87MG; assay type: cell-based, human; details: vs control
Experimental: Determination of TBARS levels. TBARS (thiobarbituric acid reactive substances), by-products of lipid peroxidation, were analyzed by measuring the concentration of malondialdehyde (MDA). The levels of MDA were measured in cell lysates using TBARS assay (Catalog No. 10009055, Cayman Chemical, Ann Arbor, USA). The concentration of lipid peroxides was calculated as an MDA equivalent using the extinction coefficient for the MDA-TBA complex of 1.56×10^5 M−1 cm^−1 at 532 nm.

[2] = tested on: SOD, CAT, GPx, GSH in U87MG glioma cells; experiment: Antioxidant marker kits (SOD, CAT, GPx, GSH), U87MG; assay type: cell-based, human; details: vs control
Experimental: Antioxidant markers. […] All experiments were carried out according to the manufacturer's instructions. Three independent biological replicates were performed for each condition.

VEGF = experiment: Immunohistochemistry of tumor sections, VEGF; assay type: in vivo, rat; details: i.p. 7 days; tumor-control 73.58%
Experimental: Immunohistochemistry. For immunohistochemistry (IHC) analysis, 4 μm thick tissue sections were deparaffinized in xylene and hydrated by immersing in a series of graded ethanol concentration (100%, 95%, 75% and 50%). Endogenous peroxidase activity was blocked by incubating sections in 3% H2O2 solution prepared in methanol at room temperature for 10 minutes and were washed with PBS twice for 5 minutes each. Antigen retrieval was performed by immersing the slides in 300 ml of retrieval buffer (10 mM citrate buffer, pH 6.0) for one hour at 100° C. and were rinsed twice in PBS. Sections were then incubated with approximately 100 μl diluted primary antibodies of Ki67 (1:100 dilution, Elabscience, Wuhan, China) and Vascular Endothelial Growth Factor (VEGF) (1:100 dilution, Elabscience, Wuhan, China) for 30 minutes at room temperature. The slides were then washed twice with PBS and were then incubated with approximately 100 μl of diluted secondary antibody (Cat No. E-IR-R213, Elabscience, Wuhan, China) at room temperature for 30 minutes. Slides were then washed in PBS for 5 minutes, followed by incubation with approximately 100 μl diluted Horse Radish Peroxidase (HRP) conjugate for 30 minutes. […] The staining intensities were quantified using IHC Profiler, a plugin in ImageJ software, to determine the H-score (Histo score).

rat brain tissue [3] = experiment: Gene expression (qRT-PCR) in brain tissue of glioma-induced rats; assay type: in vivo; details: i.p. 7 days; vs tumor-control
Experimental: Quantitative RT-PCR analysis of antioxidant enzymes (SOD and CAT), oxidative stress marker (Nrf-2), and apoptosis markers (BCL2 and Caspase-9). Total RNA from all experimental groups was isolated using RNA Express reagent (HiMedia, India) and the respective cDNAs were synthesized using a Hi-c-DNA Synthesis Kit (HiMedia, India). Quantitative RT-PCR was carried out using a CFX 96 thermocycler (Bio-Rad, Hercules, CA) and TB Green Premix Ex Taq 1 (Takara Bio, Otsu, Japan) to detect mRNA. Independent experiments were conducted in triplicate. The cycle threshold (Ct), representing a positive PCR result, is defined as the cycle number at which a sample's fluorescence intensity crossed the threshold automatically determined by the CFX 96.
The relative changes in gene expression were calculated with the 2^−ΔΔCt method, wherein ΔΔCt=(Cttarget gene−Ctβ-actin) sample−([…]) calibrator.
The qPCR analyses were performed to measure the expression levels of genes associated with anti-Warburg effect. The total RNA was extracted from the cell lysates and brain tissues of all the experimental groups using TRIZOL reagent (Takara Bio, Shiga, Japan). Quantitative RT-PCR was carried out using a CFX96 Real Time PCR Detection System (Bio-Rad, California, USA) and TB Green Premix Ex Taq I (Takara Bio, Shiga, Japan) to detect messenger ribonucleic acid (mRNA). […]

rat brain tissue [4] = experiment: Western blotting and ELISA of brain tissue proteins; assay type: in vivo; details: i.p. 7 days
[5] = tested on: human hepatocellular carcinoma (HepG2) cells; experiment: MTT cell viability assay, HepG2; assay type: cell-based; details: 24 hours
Experimental: Cell lines and culture conditions. A human hepatocellular carcinoma (HepG2) and ovarian cancer (SKOV3) cells were obtained from National Centre for Cell Science (NCCS), Pune, India. The cells HepG2 and SKOV3 were sub-cultured in Eagle's Minimum Essential Medium (EMEM) and McCoy's 5a supplemented with 10% FBS at 5% CO2 and 37° C. […] The cells were allowed to attach 70% to the surface prior to treatment. A stock solution of all the drugs (10 mg/ml) was made in distilled H2O and diluted to the required concentrations. Suspensions were aspirated 10 times before treatment. Cells treated with vehicle control were used as a control.

[6] = LC/MS of drugs and active metabolites in plasma and brain (blood brain barrier); assay type: in vivo, rat
Experimental: T, M & E (Sigma Aldrich, St. Louis, USA) were dissolved in sterile water and administered intra peritoneally for 7 days (from day 21 to day 27; where the day of tumor induction is considered day 0) to a rat with the dose specified in Table-4 (TME: 50+80+150 mg/kg body weight). After 7 days of treatment (on day 28), blood (plasma) was collected and the rat was euthanized, immediately the brain tissue was collected and stored at −80° C. The brain tissue was then processed accordingly to measure active metabolites through LC/MS.
To 100 μl of plasma or brain (0.5 g crushed in 0.5 mL of sterile water), 20 μl of the working internal standard solution was added. The samples were deproteinised with acetonitrile and the supernatant (100 μl) was injected into the chromatographic system. For the brain, as described above, ciprofloxacin solution (20 μl) was added to 100 μl of crushed brain. Then, repeating the plasma sample process, 20 μl of the solution was injected into the chromatographic system.

[7] = triple combination TME 50+80+150 mg/kg i.p. 7 days, NA = not detected

Compound: O=C(O[C@@H]1Cc2c(O)cc(O)cc2O[C@@H]1c1cc(O)c(O)c(O)c1)c1cc(O)c(O)c(O)c1 [EGCG, [(2R,3R)-5,7-dihydroxy-2-(3,4,5-trihydroxyphenyl)-3,4-dihydro-2H-chromen-3-yl] 3,4,5-trihydroxybenzoate]
- toxicity in normal HEK293T cells [1]: significant reduction in toxicity
- TBARS levels (TBARS in U87MG cells): significantly elevated
- concentrations of antioxidant markers SOD, CAT, GPx, and GSH [2]: significantly enhanced
- cytoplasmic positivity for VEGF (H-score) (VEGF): 44.45%
- gene expression levels of Nrf-2 and HIF-1α (rat brain tissue [3]): reduced expression
- protein levels of HIF-1α (rat brain tissue [4]): significantly reduced
- protein levels of Nrf-2 (rat brain tissue [4]): significantly reduced
- cell viability (MTT), in words [5]: reduction in cell viability in a dose-dependent fashion
- transport across the blood brain barrier, in words ([6]; administered individually and in combination): crossed the BBB in its native form
- Detected mass in LC-MS Brain ([6]; individually treated T, M and E, i.p. 7 days, NA = not detected): 466.11
- Detected mass in LC-MS Brain [6, 7]: 456.11
- Detected mass in LC-MS Plasma [6, 7]: 452.91
